Experimental data taken from patent US20070232527A1, “Medicaments and methods combining a HCV protease inhibitor and an AKR competitor” (priority 2005, published 2007).
Converted amounts (≈) assume the structure as drawn. Read-outs that look alike come from different tables or passages of the source. One block for each compound: values may come before it.

Experiments:
AKR1C2 [1] = molecular target: T1, AKR1C2 (Homo sapiens, UniProt P52895); conditions: tibolone as a substrate; cited from earlier work
T1 sequence (P52895 1-323): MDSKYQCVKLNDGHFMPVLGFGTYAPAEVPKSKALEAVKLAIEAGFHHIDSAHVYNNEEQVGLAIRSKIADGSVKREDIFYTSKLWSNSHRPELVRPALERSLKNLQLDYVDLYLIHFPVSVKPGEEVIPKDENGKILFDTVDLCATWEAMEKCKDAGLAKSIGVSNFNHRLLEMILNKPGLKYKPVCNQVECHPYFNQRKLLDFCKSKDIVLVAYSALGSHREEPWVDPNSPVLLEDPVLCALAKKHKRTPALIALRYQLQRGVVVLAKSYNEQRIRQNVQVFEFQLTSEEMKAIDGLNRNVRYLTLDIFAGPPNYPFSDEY

AKR1C3 [2] = molecular target: T2, AKR1C3 (Homo sapiens, UniProt P42330); conditions: tibolone as a substrate; cited from earlier work
T2 sequence (P42330 1-323): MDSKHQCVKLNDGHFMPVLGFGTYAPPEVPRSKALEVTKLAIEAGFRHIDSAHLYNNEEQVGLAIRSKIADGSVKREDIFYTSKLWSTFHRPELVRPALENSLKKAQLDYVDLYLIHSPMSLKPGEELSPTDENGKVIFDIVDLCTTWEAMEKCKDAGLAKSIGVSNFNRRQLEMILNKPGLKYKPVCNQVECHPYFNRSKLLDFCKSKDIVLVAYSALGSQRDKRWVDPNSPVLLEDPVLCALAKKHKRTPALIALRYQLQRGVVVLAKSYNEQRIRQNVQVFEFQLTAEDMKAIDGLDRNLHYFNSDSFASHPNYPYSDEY

Human liver S9 = test: Inhibition of metabolism of 14C-Formula Ia to Formula Ia′ in human liver S9; type: in vitro ADME; conditions: S9; concentration not given
human liver cytosol [3] = test: Inhibition of metabolism of 14C-Formula Ia to Formula Ia′ in human liver cytosol
Procedure: (§3) All incubations contained 3 mM magnesium chloride and NADPH-generating system in 0.5 mL of 50 mM potassium phosphate buffer, pH 7.4. Prior to the addition of drug, incubation mixtures were preincubated for 2 min at 37° C. […] The incubation mixtures were vortexed and centrifuged (˜10,000 g) at 4° C. for 10 min; supernatants were analyzed by HPLC coupled with radiometric detector. Heat activated S9 cofactor or mitochondria were used as control. For LC-MS analysis, supernatants were concentrated in SpeedVac for 3 hrs. Incubation volumes were 0.5 mL and the final concentration of the organic solvents in the incubation system was less than 1% (v/v).
(§4) The mobile phase consisted of 10 mM ammonium acetate adjusted to pH 7.0 with 1% ammonium hydroxide (A) and 100% methanol (B).

[4] = system: cytosolic enzymes that form the metabolite of Formula Ia; test: in vitro; conditions: monkey
[5] = in vivo; cited from earlier work
[6] = system: cytosolic enzymes that convert Formula Ia to Formula Ia′; test: in vitro; conditions: human
Procedure: as §3, §4

AKR1C3 [7] = molecular target: T2, AKR1C3; test: Incubation with S9 fraction of recombinant human AKR1C3; type: in vitro ADME; design: made in house; conditions: 20 μM 14C-radiolabeled compound; S9 2.5 mg protein/mL; NADPH
Procedure: (§1) Recombinant human AKRs (AKR1C2, AKR1C3 and AKR1C4) were grown, sonicated and centrifuged at ˜10,000 g to obtain S9 fractions. Incubations of ^14C-radiolabeled compound of Formula Ia, ^14C-radiolabeled compound of Formula Ib and ^14C-radiolabeled compound of Formula Ic (all at 20 μM) with S9-fractions from three recombinant human AKRs (2.5 mg protein/mL) were conducted as described above. [drawing 161]
(§2) The samples were analyzed by HPLC-coupled with radiometric detector and confirmed by LC-MS.

human liver cytosol [8] = test: Incubation of Formula Ia or Formula XXVII in human liver cytosol with AKR competitor (LC-MS, M+2 metabolite); type: in vitro ADME
Procedure: Prior to the addition of drug, the incubation mixture was preincubated for 2 min at 37° C. […] Human liver microsomes and cytosol without NADPH served as negative controls. Parallel incubations with the compound of Formula Ia were used as positive controls. […] All incubations were performed as described previously for human liver cytosols. […] Parallel incubations with the compound of Formula Ia were used as positive controls.

[9] = In vivo inhibition study of Formula Ia with AKR competitor diflunisal, plasma PK; conditions: cynomolgus monkeys plasma; as a function of diflunisal dose 0, 62.5, 125, 250 mg
Procedure: An in vivo study was conducted in cynomolgus monkeys where 200 mg Formula Ia and 0 (control), 62.5, 125, or 250 mg diflunisal (Dolobid) was administered as illustrated below. All six monkeys were first dosed with Formula Ia with blood samples collected over a 12 hr period for plasma pharmacokinetics (PK) of Formula Ia prior to administration of diflunisal (dose-escalation). Four doses of diflunisal were subsequently administered every 12 hr with Formula Ia administered at each 4th diflunisal dose after which blood samples were collected for PK assessment of Formula Ia. The following chart summarizes the timing of Formula Ia and diflunisal administration.

AKR1C2 [10] = molecular target: T1, AKR1C2; test: Incubation with S9 fraction of recombinant human AKR1C2; type: in vitro ADME; design: made in house; conditions: 20 μM 14C-radiolabeled compound; S9 2.5 mg protein/mL; NADPH
Procedure: as §1, §2

[11] = Clinical study of the effect of ibuprofen on pharmacokinetics of Formula Ia; type: in vivo; conditions: human, single 400 mg dose PO fasted, alone or with ibuprofen 600 mg TID; for AUC: plasma, po, 400 mg
Procedure: The study was conducted in an open-label, randomized, 3-period, 2-sequence crossover manner (FIG. 6). During Period 1, all 12 subjects were administered a single 400 mg dose of Formula Ia. During Periods 2 and 3, subjects received multiple doses of ibuprofen (600 mg TID) in a randomized sequence. The ibuprofen was administered beginning on Day 1 (3 days prior to Formula Ia administration) and continued through Day 6. A single dose of Formula Ia was administered on Day 4 (2 hours after administration of the AM dose of ibuprofen). Plasma samples for pharmacokinetic and metabolite analyses of Formula Ia was collected at predose (0 hour), 0.5, 1, 1.5, 2, 2.5, 3, 4, 5, 6, 7, 8, 9, 10, 12, 24, 36, 48, and 72 hour postdose for each period. (The 48 and 72 hour postdose samples for Period 1 was collected in an outpatient setting). In Periods 2 and 3, additional blood samples were collected immediately prior to dosing of the Formula Ia on Day 4 and two hours post ibuprofen administration on Day 5 for determination of ibuprofen concentration.
Treatment A: Formula Ia (4×100 mg capsules); single dose, PO following an overnight fast, administered on Day 1 or Period 1.
Treatment C: Ibuprofen 600 mg; PO, TID from Day 1 to Day 6 Formula Ia (4×100 mg capsules); single dose, PO following an overnight fast, administered on Day 4 (2 hours after the AM ibuprofen dose).
Subjects received a single dose of Formula Ia on Day 1 of Period 1. In Period 2 and Period 3, subjects were treated for 6 days with ibuprofen and received a single dose of Formula Ia on Day 4 of each period. There were at least 7 days between administration of Formula Ia in Period 1 and Period 2 and at least 14 days between administration of Formula Ia in Period 2 and 3.
The proportion of subjects with plasma concentrations above the in vitro IC50 and IC90 for the HCV replicon at each time point was determined. This plasma concentration data was used to estimate the following primary pharmacokinetic variables for the determination of bioavailability comparisons: • AUC—Area under the plasma concentration-time. • Cmax—Maximum observed plasma concentration. • Tmax—Time to maximum observed plasma concentration. • t1/2—Terminal phase half-life.

Structure (SMILES): CC(CCC(=O)O)C1CCC2C3C(O)CC4CC(O)CCC4(C)C3CCC12C (stereo not drawn) [5beta-cholanic acid 3alpha, 7-alpha-diol]
IC50 (AKR1C2 [1]): 0.21 µM
IC50 (AKR1C3 [2]): 74.4 µM

Structure (SMILES): O=[N+]([O-])c1ccc(OP(=O)(O)Oc2ccc([N+](=O)[O-])cc2)cc1 [BNPP, bis(4-nitrophenyl)-phosphate]
inhibited formation of the compound of Formula Ia′ (Human liver S9): 57.4%
% Inhibition on Metabolite Formation of Compound Formula Ia (human liver cytosol [3]; Table 4, human liver cytosol, inhibitor 1000 μM, 2 hr incubation): 63.4%
inhibited formation of the compound of Formula Ia′ (human liver cytosol [3]; cytosol, concentration not given): 63.4%

Structure (SMILES): O=C(O)c1cc(-c2ccc(F)cc2F)ccc1O [Diflunisal]
IC50 [4]: 11 µM
Vdss [5]: 0.1 L/kg
protein binding [5]: about 99%
IC50 at 120 min ([6]; pH 7.4): 1 µg/mL (≈ 4 µM)
inhibition at 2 h, 200 µM ([6]; pH 7.4, % of Inhibition on Metabolite Formation of Compound Formula Ia): 89.4%
Ki (human liver cytosol [3]; human cytosol, assuming the liver to plasma ratio equals 1): 0.5 µg/mL

metabolism by recombinant AKR1C3 (AKR1C3 [7]): yielded compound of Formula Ia′
1ST PARENT PEAK AREA (human liver cytosol [8]; HL Cytosol w/ NADPH + 50 uM Mefenamic acid): 6.19E+07
1ST PARENT PEAK AREA (human liver cytosol [8]; HL Cytosol w/ NADPH + 100 uM Flufenamic acid): 6.33E+07
1ST PARENT PEAK AREA (human liver cytosol [8]; HL Cytosol w/ NADPH + 100 uM Phenolphthalein): 6.23E+07
1ST PARENT PEAK AREA (human liver cytosol [8]; HL Cytosol w/ NADPH + 200 uM Diflunisal): 6.10E+07
1ST PARENT PEAK AREA (human liver cytosol [8]; HL Cytosol w/ NADPH Vehicle Control (no inhibitor)): 3.95E+07
1ST PARENT PEAK AREA (human liver cytosol [8]; HL Cytosol w/o NADPH, 20 μM, 60 min): 7.41E+07
AUC ratio (Formula Ia′ to AUC for the compound) [9]: decline
metabolism by recombinant AKR1C2 (AKR1C2 [10]): yielded compound of Formula Ia′
AUC ([11]; read-out: AUC(all), Mean (% CV)): 2040 ng·h/mL
AUC ([11]; read-out: AUC(l), Mean (% CV)): 2070 ng·h/mL
AUC(0-t) ([11]; plasma Formula Ia, read-out: AUC(last), Mean (% CV)): 2000 ng·h/mL
Cmax ([11]; plasma Formula Ia, read-out: Cmax, Mean (% CV)): 571 ng/mL
MRT ([11]; plasma Formula Ia, read-out: MRT(l), Mean (% CV)): 6.57 h
Tmax ([11]; plasma Formula Ia, read-out: Tmax (median)): 1.75 h
half-life ([11]; plasma Formula Ia, read-out: t1/2, Mean (% CV) (converted)): 9.11 h
Structure (SMILES): CC(C)(C)NC(=O)N[C@H](C(=O)N1C[C@H]2[C@@H]([C@H]1C(=O)NC(CC1CCC1)C(=O)C(N)=O)C2(C)C)C(C)(C)C (stereo partly drawn) [Formula Ia, (1R,5S)—N-[3-Amino-1-(Cyclobutylmethyl)-2,3-Dioxopropyl]-3-[2(S)-[[[(1,1-Dimethylethyl)Amino]Carbonyl]Amino]-3,3-Dimethyl-1-Oxobutyl]-6,6-Dimethyl-3-Azabicyclo[3.1.0]Hexan-2(S)-Carboxamide]
